One may read the IC50 as the concentration needed to halve the response being measured.

Structures can show the parent of a compound that is named as a salt.

What all share (conditions): averaged IC50
For assay [1], the target named is His-tagged recombinant human MER cytoplasmic domain (Homo sapiens (Human), UniProt Q12866). Put plainly: MER Enzyme Assay (LanthaScreen Eu Kinase Binding, TR-FRET). The method in brief:
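Percent of control, derived from ratiometric TR-FRET emission, was fitted to a 4-parameter logistic curve and IC50 taken at 50 POC. Binding was read after 60 min at 22 °C using Eu-based LanthaScreen technology and recombinant His-tagged MER cytoplasmic domain.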

The target of assay [2] is GST-tagged recombinant human TYRO3 kinase domain (Homo sapiens (Human), UniProt Q06418). Put plainly: TYRO3 Enzyme Assay (LanthaScreen Eu Kinase Binding, TR-FRET). An outline of the steps:
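LanthaScreen Eu binding (tracer displacement) format read by TR-FRET after 60 min at 22 °C. Emission ratio converted to percent of control; IC50 taken where a 4-parameter logistic fit crosses 50 POC.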
Background: TR-FRET usually uses a lanthanide donor and a delayed reading to cut background.

Assay [3] concerns the target His-tagged recombinant human AXL cytoplasmic domain (Homo sapiens (Human), UniProt P30530). Put plainly: AXL Enzyme Assay (LanthaScreen Eu Kinase Binding, TR-FRET). An outline of the steps: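 Compound displacement measured by TR-FRET after 60 min at 22 °C, using Eu-based LanthaScreen binding technology. Ratiometric emission converted to percent of control, fitted to a 4-parameter logistic curve, with IC50 at 50 POC.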

His-tagged recombinant human MER cytoplasmic domain, sequence (Q12866 527-999): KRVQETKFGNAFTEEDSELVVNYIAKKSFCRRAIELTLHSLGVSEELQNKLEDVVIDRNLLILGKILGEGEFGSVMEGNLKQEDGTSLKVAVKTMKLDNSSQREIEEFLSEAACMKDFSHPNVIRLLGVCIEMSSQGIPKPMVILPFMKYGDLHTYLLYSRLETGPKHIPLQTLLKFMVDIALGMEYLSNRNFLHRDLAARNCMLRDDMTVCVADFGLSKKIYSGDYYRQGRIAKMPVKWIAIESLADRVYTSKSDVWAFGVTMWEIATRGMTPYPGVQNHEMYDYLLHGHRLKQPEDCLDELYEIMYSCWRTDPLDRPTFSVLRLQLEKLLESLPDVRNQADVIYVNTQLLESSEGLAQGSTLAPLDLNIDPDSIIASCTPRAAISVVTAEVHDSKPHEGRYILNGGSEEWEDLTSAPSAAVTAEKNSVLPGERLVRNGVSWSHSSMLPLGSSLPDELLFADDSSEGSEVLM
GST-tagged recombinant human TYRO3 kinase domain, sequence (Q06418 518-790): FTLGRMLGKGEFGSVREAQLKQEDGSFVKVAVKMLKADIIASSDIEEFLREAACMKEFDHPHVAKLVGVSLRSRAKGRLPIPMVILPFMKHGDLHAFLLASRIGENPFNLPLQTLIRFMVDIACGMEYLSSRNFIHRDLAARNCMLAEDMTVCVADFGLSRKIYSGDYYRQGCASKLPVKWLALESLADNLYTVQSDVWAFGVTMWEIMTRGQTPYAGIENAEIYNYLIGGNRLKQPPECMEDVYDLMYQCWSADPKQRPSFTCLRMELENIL
His-tagged recombinant human AXL cytoplasmic domain, sequence (P30530 473-894): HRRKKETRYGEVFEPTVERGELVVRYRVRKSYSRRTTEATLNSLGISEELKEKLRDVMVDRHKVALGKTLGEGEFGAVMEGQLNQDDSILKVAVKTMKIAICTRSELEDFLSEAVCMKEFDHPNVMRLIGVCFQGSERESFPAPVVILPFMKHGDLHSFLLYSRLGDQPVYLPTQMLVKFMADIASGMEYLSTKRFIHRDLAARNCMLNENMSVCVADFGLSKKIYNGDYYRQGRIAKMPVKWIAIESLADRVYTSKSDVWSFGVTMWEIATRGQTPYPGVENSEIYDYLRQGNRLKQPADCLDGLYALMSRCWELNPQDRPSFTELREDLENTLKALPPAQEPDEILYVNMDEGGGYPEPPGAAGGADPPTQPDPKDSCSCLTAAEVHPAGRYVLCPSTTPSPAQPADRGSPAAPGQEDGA

Regarding `CCNc1cc2c(cn1)c(-c1cnn(C)c1)nn2[C@H]1CC[C@@H](Oc2nccc(C#N)c2F)CC1` [Example 352, 2-(((1s,4s)-4-(6-(ethylamino)-3-(1-methyl-1H-pyrazol-4-yl)-1H-pyrazolo[4,3-c]pyridin-1-yl)cyclohexyl)oxy)-3-fluoroisonicotinonitrile], the 50% inhibitory concentration (IC50) in assay [1] is less than 10 nM; in assay [2], 10 to 100 nM; in assay [3] it was less than 10 nM.

For the molecule `CNc1cc2c(cn1)c(-c1cnn(C(C)(C)C#N)c1)nn2[C@H]1CC[C@@H](Oc2cccc(F)c2F)CC1` [Example 369, 2-(4-(1-((1s,4s)-4-(2,3-difluorophenoxy)cyclohexyl)-6-(methylamino)-1H-pyrazolo[4,3-c]pyridin-3-yl)-1H-pyrazol-1-yl)-2-methylpropanenitrile], the half-maximal inhibitory concentration (IC50) was less than 10 nM in assay [1], 10 to 100 nM in assay [2] and less than 10 nM in assay [3].

On to `CCNc1cc2c(cn1)c(-c1ccc(CN3CCN(C)CC3)cc1)nn2[C@H]1CC[C@@H](Oc2cn(C)nc2C(F)(F)F)CC1` [Example 289, N-ethyl-1-((1s,4s)-4-((1-methyl-3-(trifluoromethyl)-1H-pyrazol-4-yl)oxy)cyclohexyl)-3-(4-((4-methylpiperazin-1-yl)methyl)phenyl)-1H-pyrazolo[4,3-c]pyridin-6-amine], for which the IC50 in assay [1], in assay [2] and in assay [3] was less than 10 nM each time.

As for `CCNc1cc2c(cn1)c(-c1cnn(C)c1)nn2[C@H]1CC[C@@H](Oc2cccnc2C#N)CC1` [Example 188, 3-(((1s,4s)-4-(6-(ethylamino)-3-(1-methyl-1H-pyrazol-4-yl)-1H-pyrazolo[4,3-c]pyridin-1-yl)cyclohexyl)oxy)picolinonitrile], the IC50 in assay [1], in assay [2] and in assay [3] was less than 10 nM throughout.

Regarding `CCNc1cc2c(cn1)c(C1CCNCC1)nn2[C@H]1CC[C@@H](Oc2nccc(C(F)(F)F)c2F)CC1` [Example 319, N-ethyl-1-((1s,4s)-4-((3-fluoro-4-(trifluoromethyl)pyridin-2-yl)oxy)cyclohexyl)-3-(piperidin-4-yl)-1H-pyrazolo[4,3-c]pyridin-6-amine], the IC50 in assay [1], in assay [2] and in assay [3] was less than 10 nM throughout.

For `CCNc1cc2c(cn1)c(-c1cnn(CCN3CCN(C)CC3)c1)nn2[C@H]1CC[C@@H](Oc2nccc(C(F)(F)F)c2F)CC1` [Example 496], the IC50 in assay [1], in assay [2] and in assay [3] was less than 10 nM throughout.

Regarding `CNc1cc2c(cn1)c(-c1cnn(C[C@H](N)CO)c1)nn2[C@H]1CC[C@@H](Oc2ccccc2F)CC1` [Example 433, (S)-2-amino-3-(4-(1-((1s,4S)-4-(2-fluorophenoxy)cyclohexyl)-6-(methylamino)-1H-pyrazolo[4,3-c]pyridin-3-yl)-1H-pyrazol-1-yl)propan-1-ol], the IC50 in assay [1], in assay [2] and in assay [3] was less than 10 nM in each case.

With `CCNc1cc2c(cn1)c(N1CC3COCC3C1)nn2[C@H]1CC[C@@H](Oc2nccc(C(F)(F)F)c2F)CC1` (stereo partly drawn) [Example 342, N-ethyl-1-((1s,4s)-4((3-fluoro-4-(trifluoromethyl)pyridin-2-yl)oxy)cyclohexyl)-3-(tetrahydro-1H-furo[3,4-c]pyrrol-5(3H)-yl)-1H-pyrazolo[4,3-c]pyridin-6-amine], the IC50 in assay [1] was less than 10 nM; in assay [2], 10 to 100 nM; in assay [3] it was less than 10 nM.

With `CCNc1cc2c(cn1)c(-c1cnn(C)c1)nn2[C@H]1CC[C@@H](Oc2nccc(C)c2F)CC1` [Example 346, N-ethyl-1-((1s,4s)-4-((3-fluoro-4-methylpyridin-2-yl)oxy)cyclohexyl)-3-(1-methyl-1H-pyrazol-4-yl)-1H-pyrazolo[4,3-c]pyridin-6-amine], the figures for the IC50 in assay [1], in assay [2] and in assay [3] were less than 10 nM, 10 to 100 nM and less than 10 nM, respectively.

In the case of `CCNc1cc2c(cn1)c(C1CCN(C)CC1)nn2[C@H]1CC[C@@H](Oc2cn[nH]c2C(F)(F)F)CC1` [Example 313, N-ethyl-3-(1-methylpiperidin-4-yl)-1-((1s,4s)-4-((5-(trifluoromethyl)-1H-pyrazol-4-yl)oxy)cyclohexyl)-1H-pyrazolo[4,3-c]pyridin-6-amine], the IC50 in assay [1], in assay [2] and in assay [3] was less than 10 nM throughout.

For the molecule `CCNc1cc2c(cn1)c(-c1cnn(C)c1)nn2[C@H]1CC[C@@H](Oc2cccc(C#N)c2)CC1` [Example 378, 3-(((1s,4s)-4-(6-(ethylamino)-3-(1-methyl-1H-pyrazol-4-yl)-1H-pyrazolo[4,3-c]pyridin-1-yl)cyclohexyl)oxy)benzonitrile], the IC50 in assay [1] is less than 10 nM; in assay [2], 10 to 100 nM; in assay [3] it was less than 10 nM.

With `CCNc1cc2c(cn1)c(-c1cnn(C[C@@H](O)CO)c1)nn2[C@H]1CC[C@@H](Oc2cccc(F)c2Cl)CC1` [Example 437, (R)-3-(4-(1-((1s,4S)-4-(2-chloro-3-fluorophenoxy)cyclohexyl)-6-(ethylamino)-1H-pyrazolo[4,3-c]pyridin-3-yl)-1H-pyrazol-1-yl)propane-1,2-diol], the IC50 in assay [1] is less than 10 nM; in assay [2], 10 to 100 nM; in assay [3], less than 10 nM.

As for `CCNc1cc2c(cn1)c(C1CCN(C)C1)nn2[C@H]1CC[C@@H](Oc2nccc(C(F)(F)F)c2F)CC1` (stereo partly drawn) [Example 325, N-ethyl-1-((1s,4s)-4-((3-fluoro-4-(trifluoromethyl)pyridin-2-yl)oxy)cyclohexyl)-3-(1-methylpyrrolidin-3-yl)-1H-pyrazolo[4,3-c]pyridin-6-amine], the IC50 in assay [1] was less than 10 nM; in assay [2], 10 to 100 nM; in assay [3] it was less than 10 nM.

`CNc1cc2c(cn1)c(-c1cnn(C[C@H](O)CO)c1)nn2[C@H]1CC[C@@H](Oc2cccnc2C(F)(F)F)CC1` [Example 204, (S)-3-(4-(6-(methylamino)-1-((1s,4R)-4-((2-(trifluoromethyl)pyridin-3-yl)oxy)cyclohexyl)-1H-pyrazolo[4,3-c]pyridin-3-yl)-1H-pyrazol-1-yl)propane-1,2-diol hydrochloride]: the IC50 in assay [1], in assay [2] and in assay [3] was less than 10 nM throughout.

Regarding `CCNc1cc2c(cn1)c(-c1cnn(CC(N)=O)c1)nn2[C@H]1CC[C@@H](Oc2nccc(C(F)(F)F)c2F)CC1` [Example 248, 2-(4-(6-(ethylamino)-1-((1s,4s)-4-((3-fluoro-4-(trifluoromethyl)pyridin-2-yl)oxy)cyclohexyl)-1H-pyrazolo[4,3-c]pyridin-3-yl)-1H-pyrazol-1-yl)acetamide], the IC50 in assay [1], in assay [2] and in assay [3] was less than 10 nM throughout.

The record behind these values is patent US11247990B1, “Bicyclic fused pyridine compounds as inhibitors of TAM kinases” (ARRAY BIOPHARMA INC., priority 2017, dated 2022).
